pIC50: −log10 of the molar value.
How the values were obtained:
[1] = target: Tyrosine-protein kinase Lck (Homo sapiens, UniProt P06239); assay: DRUGMATRIX: Protein Tyrosine Kinase, LCK enzyme inhibition (substrate: Poly(Glu:Tyr)); format: cell-based, Insect cells; settings: Not Active = under 50% inhibition at 10 µM; for IC50: insect cells
[2] = DRUGMATRIX: Phorbol Ester radioligand binding (ligand: [3H] PDBu); format: cell membranes, Mus musculus, ICR, Brain, Membrane; settings: Not Active = under 50% inhibition at 10 µM
[3] = target: T1, Muscarinic acetylcholine receptor M2 (Homo sapiens, UniProt P08172); format: cell membranes, CHO-K1, Membrane; settings: cho-k1; also: in other assays of this panel Not Active means under 50% inhibition at 10 µM
T1 sequence (P08172 whole entry): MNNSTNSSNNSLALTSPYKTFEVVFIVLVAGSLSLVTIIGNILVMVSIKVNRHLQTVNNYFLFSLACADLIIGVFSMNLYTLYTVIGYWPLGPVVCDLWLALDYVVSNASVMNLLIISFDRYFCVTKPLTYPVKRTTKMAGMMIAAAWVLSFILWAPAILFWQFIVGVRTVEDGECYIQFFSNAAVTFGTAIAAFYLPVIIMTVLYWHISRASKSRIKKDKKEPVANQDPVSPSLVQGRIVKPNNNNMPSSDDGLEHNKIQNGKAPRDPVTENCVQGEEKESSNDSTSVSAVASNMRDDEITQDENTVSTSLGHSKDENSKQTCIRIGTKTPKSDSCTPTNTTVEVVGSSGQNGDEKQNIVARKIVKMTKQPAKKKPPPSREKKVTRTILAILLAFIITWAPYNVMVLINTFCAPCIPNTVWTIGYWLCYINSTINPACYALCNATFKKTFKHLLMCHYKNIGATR

[4] = DRUGMATRIX: GABAA, Flunitrazepam, Central radioligand binding (ligand: [3H] Flunitrazepam); format: cell membranes, Rattus norvegicus, Wistar, Brain, Membrane; settings: Not Active = under 50% inhibition at 10 µM
[5] = target: C-C chemokine receptor type 2 (Homo sapiens, UniProt P41597); format: cell membranes, CHO-K1, Membrane; settings: cho-k1; also: in other assays of this panel Not Active means under 50% inhibition at 10 µM
[6] = target: Beta-2 adrenergic receptor (Homo sapiens, UniProt P07550); assay: DRUGMATRIX: Adrenergic beta2 radioligand binding (ligand: [3H] CGP-12177); format: cell membranes, Membrane; settings: cho; Not Active = under 50% inhibition at 10 µM
Calcitonin receptor = target: T2, Calcitonin receptor (Homo sapiens, UniProt P30988); format: cell membranes, Membrane; settings: t47d; also: in other assays of this panel Not Active means under 50% inhibition at 10 µM
T2 sequence (P30988 whole entry): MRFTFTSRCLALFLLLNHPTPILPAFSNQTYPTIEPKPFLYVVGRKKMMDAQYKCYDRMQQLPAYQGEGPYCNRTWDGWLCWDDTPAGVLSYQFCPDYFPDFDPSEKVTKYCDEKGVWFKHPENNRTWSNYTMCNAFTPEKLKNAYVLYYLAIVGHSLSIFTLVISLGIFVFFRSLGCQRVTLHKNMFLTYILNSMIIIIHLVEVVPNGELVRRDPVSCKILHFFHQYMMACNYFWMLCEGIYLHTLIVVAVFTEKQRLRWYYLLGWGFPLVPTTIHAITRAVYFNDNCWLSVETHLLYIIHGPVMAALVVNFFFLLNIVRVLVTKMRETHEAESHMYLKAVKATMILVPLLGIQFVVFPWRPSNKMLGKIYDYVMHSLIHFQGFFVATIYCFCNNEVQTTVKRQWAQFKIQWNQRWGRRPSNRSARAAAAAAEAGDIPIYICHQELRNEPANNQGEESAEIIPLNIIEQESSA

B2 bradykinin receptor = target: T3, B2 bradykinin receptor (Homo sapiens, UniProt P30411); format: cell membranes, Membrane; settings: chem-1; also: in other assays of this panel Not Active means under 50% inhibition at 10 µM
T3 sequence (P30411 whole entry): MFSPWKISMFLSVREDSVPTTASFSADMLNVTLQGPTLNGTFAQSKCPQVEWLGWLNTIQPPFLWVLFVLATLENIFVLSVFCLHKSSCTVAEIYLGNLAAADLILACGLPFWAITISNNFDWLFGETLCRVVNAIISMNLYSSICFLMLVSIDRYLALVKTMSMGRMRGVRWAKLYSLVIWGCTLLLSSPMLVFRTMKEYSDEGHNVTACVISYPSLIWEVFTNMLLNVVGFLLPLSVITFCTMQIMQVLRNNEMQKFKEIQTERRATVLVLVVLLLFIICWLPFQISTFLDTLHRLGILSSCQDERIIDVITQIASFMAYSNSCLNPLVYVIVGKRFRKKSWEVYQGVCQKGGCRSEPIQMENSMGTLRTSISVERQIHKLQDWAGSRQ

[7] = target: T4, Cholecystokinin receptor type A (Homo sapiens, UniProt P32238); format: cell membranes, Membrane; settings: 1321-n1; also: in other assays of this panel Not Active means under 50% inhibition at 10 µM
T4 sequence (P32238 whole entry): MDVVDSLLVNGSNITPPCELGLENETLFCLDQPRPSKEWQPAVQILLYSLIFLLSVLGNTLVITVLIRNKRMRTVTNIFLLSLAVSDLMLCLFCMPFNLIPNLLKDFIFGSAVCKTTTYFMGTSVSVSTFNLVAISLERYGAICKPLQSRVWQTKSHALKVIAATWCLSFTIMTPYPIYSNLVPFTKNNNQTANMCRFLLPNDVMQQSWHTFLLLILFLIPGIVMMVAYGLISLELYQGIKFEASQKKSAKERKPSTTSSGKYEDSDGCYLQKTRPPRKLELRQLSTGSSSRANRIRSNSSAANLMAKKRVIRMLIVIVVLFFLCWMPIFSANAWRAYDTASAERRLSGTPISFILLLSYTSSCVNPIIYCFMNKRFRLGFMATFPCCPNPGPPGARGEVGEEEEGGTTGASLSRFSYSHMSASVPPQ

[8] = DRUGMATRIX: Glutamate, NMDA, Phencyclidine radioligand binding (ligand: [3H] TCP); format: cell membranes, Rattus norvegicus, Wistar, Cerebral cortex, Membrane; settings: Not Active = under 50% inhibition at 10 µM
[9] = target: Beta-1 adrenergic receptor (Homo sapiens, UniProt P08588); assay: DRUGMATRIX: Adrenergic beta1 radioligand binding (ligand: [125I] Cyanopindolol); format: cell membranes, CHO-K1, Membrane; settings: cho-k1; Not Active = under 50% inhibition at 10 µM
[10] = DRUGMATRIX: Leukotriene, BLT (LTB4) radioligand binding (ligand: [3H]LTB4); format: cell membranes, Membrane; settings: u-937; Not Active = under 50% inhibition at 10 µM
[11] = DRUGMATRIX: Sigma2 radioligand binding (ligand: [3H] Ifenprodil); format: cell membranes, Rattus norvegicus, Wistar, Brain, Membrane; settings: Not Active = under 50% inhibition at 10 µM
[12] = DRUGMATRIX: GABAA, Muscimol, Central radioligand binding (ligand: [3H] Muscimol); format: cell membranes, Rattus norvegicus, Wistar, Brain, Membrane; settings: Not Active = under 50% inhibition at 10 µM
[13] = DRUGMATRIX: Calcium Channel Type L, Dihydropyridine radioligand binding (ligand: [3H] Nitrendipine); format: cell membranes, Rattus norvegicus, Wistar, Cerebral cortex, Membrane; settings: Not Active = under 50% inhibition at 10 µM
[14] = target: Kappa-type opioid receptor (Homo sapiens, UniProt P41145); assay: DRUGMATRIX: Opiate kappa (OP2, KOP) radioligand binding (ligand: [3H] Diprenorphine); format: cell membranes, HEK293, Membrane; settings: hek293; Not Active = under 50% inhibition at 10 µM
Kappa-type opioid receptor, sequence (P41145 whole entry): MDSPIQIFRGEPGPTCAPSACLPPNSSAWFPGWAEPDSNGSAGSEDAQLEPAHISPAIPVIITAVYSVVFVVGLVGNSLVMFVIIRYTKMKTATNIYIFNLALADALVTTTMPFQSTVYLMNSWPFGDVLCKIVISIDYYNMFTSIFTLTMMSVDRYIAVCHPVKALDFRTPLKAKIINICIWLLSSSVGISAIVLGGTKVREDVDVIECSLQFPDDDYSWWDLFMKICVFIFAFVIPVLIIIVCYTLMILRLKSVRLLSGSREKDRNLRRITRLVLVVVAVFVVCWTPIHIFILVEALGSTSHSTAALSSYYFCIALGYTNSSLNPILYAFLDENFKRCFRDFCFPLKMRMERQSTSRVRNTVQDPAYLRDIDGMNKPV

Tyrosine-protein kinase Lck, sequence (P06239 whole entry): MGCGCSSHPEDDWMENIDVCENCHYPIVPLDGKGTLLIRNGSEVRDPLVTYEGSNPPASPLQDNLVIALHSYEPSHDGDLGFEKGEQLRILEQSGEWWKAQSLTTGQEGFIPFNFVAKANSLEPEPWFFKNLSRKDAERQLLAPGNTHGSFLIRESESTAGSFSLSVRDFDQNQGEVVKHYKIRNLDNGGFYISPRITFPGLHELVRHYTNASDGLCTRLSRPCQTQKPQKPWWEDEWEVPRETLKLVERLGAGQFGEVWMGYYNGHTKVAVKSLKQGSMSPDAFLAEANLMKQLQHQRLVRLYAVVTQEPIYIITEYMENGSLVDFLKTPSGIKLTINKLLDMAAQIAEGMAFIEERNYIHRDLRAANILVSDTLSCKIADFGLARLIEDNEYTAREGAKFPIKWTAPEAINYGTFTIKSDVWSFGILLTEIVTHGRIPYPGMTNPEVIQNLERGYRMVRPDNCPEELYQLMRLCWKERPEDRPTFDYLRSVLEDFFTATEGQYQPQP
Beta-2 adrenergic receptor, sequence (P07550 whole entry): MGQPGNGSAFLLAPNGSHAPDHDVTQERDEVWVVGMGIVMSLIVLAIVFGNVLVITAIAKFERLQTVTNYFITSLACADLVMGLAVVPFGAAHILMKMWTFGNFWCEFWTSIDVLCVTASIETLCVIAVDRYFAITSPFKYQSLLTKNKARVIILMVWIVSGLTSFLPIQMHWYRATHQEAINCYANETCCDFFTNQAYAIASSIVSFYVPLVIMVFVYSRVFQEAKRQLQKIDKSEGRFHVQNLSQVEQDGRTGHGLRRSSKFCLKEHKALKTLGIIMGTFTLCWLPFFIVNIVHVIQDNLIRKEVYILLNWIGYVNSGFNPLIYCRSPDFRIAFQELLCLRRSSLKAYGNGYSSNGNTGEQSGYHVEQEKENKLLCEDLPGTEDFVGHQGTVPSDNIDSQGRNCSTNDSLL
Beta-1 adrenergic receptor, sequence (P08588 whole entry): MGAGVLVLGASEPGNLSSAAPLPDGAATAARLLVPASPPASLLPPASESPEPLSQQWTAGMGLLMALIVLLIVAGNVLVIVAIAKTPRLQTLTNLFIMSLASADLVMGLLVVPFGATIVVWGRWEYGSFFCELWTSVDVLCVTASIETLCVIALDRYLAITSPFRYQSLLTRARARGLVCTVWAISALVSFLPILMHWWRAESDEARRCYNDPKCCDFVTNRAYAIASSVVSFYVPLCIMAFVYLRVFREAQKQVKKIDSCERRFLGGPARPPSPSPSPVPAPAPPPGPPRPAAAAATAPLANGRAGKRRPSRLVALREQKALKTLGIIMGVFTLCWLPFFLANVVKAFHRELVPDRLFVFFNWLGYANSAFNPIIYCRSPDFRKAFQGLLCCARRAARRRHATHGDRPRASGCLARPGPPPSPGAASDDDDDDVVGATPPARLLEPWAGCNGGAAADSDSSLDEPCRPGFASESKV
C-C chemokine receptor type 2, sequence (P41597 whole entry): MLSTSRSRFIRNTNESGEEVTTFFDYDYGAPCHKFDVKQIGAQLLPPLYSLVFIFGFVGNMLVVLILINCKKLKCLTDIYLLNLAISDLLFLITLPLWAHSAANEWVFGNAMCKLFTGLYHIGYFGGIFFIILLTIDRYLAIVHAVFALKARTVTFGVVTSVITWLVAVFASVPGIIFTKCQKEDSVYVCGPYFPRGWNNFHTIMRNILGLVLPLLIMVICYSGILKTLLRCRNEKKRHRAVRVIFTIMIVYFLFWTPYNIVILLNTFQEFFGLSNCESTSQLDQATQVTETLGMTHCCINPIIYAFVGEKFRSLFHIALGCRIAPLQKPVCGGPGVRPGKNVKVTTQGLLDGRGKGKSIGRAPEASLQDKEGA

CCOC(=O)[C@H](CCc1ccccc1)N[C@@H](C)C(=O)N1[C@H](C(=O)O)C[C@@H]2CCC[C@@H]21
Not Active: IC50 [1] | IC50 [2] | Ki [2] | IC50 [3] | IC50 [4] | Ki [4] | IC50 [5] | IC50 [6] | IC50 (Calcitonin receptor) | IC50 (B2 bradykinin receptor) | IC50 [7] | IC50 [8] | Ki [8] | IC50 [9] | IC50 [10] | Ki [10] | IC50 [11] | Ki [11] | IC50 [12] | Ki [12] | IC50 [13] | Ki [13] | IC50 [14]

CC(C)(C)NC(=O)[C@@H]1CN(Cc2cccnc2)CCN1C[C@@H](O)C[C@@H](Cc1ccccc1)C(=O)N[C@H]1c2ccccc2C[C@H]1O.O
Not Active: IC50 [1] | IC50 [2] | Ki [2] | IC50 [3] | IC50 [4] | Ki [4] | IC50 [5] | IC50 [6] | IC50 (Calcitonin receptor) | IC50 (B2 bradykinin receptor) | IC50 [7] | IC50 [8] | Ki [8] | IC50 [9] | IC50 [10] | Ki [10] | IC50 [11] | Ki [11] | IC50 [12] | Ki [12] | IC50 [13] | Ki [13] | IC50 [14]

CC1(C)[C@H]2CC[C@]1(C)C(=O)C2 [(-)-CAMPHOR]
Not Active: IC50 [1] | IC50 [2] | Ki [2] | IC50 [3] | IC50 [4] | Ki [4] | IC50 [5] | IC50 [6] | IC50 (Calcitonin receptor) | IC50 (B2 bradykinin receptor) | IC50 [7] | IC50 [8] | Ki [8] | IC50 [9] | IC50 [10] | Ki [10] | IC50 [11] | Ki [11] | IC50 [12] | Ki [12] | IC50 [13] | Ki [13] | IC50 [14]

Oc1c(I)cc(I)c2cccnc12 [IODOQUINOL]
Not Active: IC50 [2] | Ki [2] | IC50 [3] | IC50 [4] | Ki [4] | IC50 [5] | IC50 [6] | IC50 (Calcitonin receptor) | IC50 (B2 bradykinin receptor) | IC50 [7] | IC50 [8] | Ki [8] | IC50 [9] | IC50 [10] | Ki [10] | IC50 [11] | Ki [11] | IC50 [12] | Ki [12] | IC50 [13] | Ki [13] | IC50 [14]
5.61: pIC50 ([1]; read-out: IC50)

NNC(=O)c1ccncc1 [ISONIAZID]
Not Active: IC50 [1] | IC50 [2] | Ki [2] | IC50 [3] | IC50 [4] | Ki [4] | IC50 [5] | IC50 [6] | IC50 (Calcitonin receptor) | IC50 (B2 bradykinin receptor) | IC50 [7] | IC50 [8] | Ki [8] | IC50 [9] | IC50 [10] | Ki [10] | IC50 [11] | Ki [11] | IC50 [12] | Ki [12] | IC50 [13] | Ki [13] | IC50 [14]

CC1=C(/C=C/C(C)=C/C=C/C(C)=C\C(=O)O)C(C)(C)CCC1 [ISOTRETINOIN]
Not Active: IC50 [1] | IC50 [2] | Ki [2] | IC50 [3] | IC50 [4] | Ki [4] | IC50 [5] | IC50 [6] | IC50 (Calcitonin receptor) | IC50 (B2 bradykinin receptor) | IC50 [7] | IC50 [8] | Ki [8] | Ki [9] | IC50 [10] | Ki [10] | IC50 [11] | Ki [11] | IC50 [12] | Ki [12] | IC50 [13] | Ki [13] | IC50 [14]

CO[C@@H]1[C@@H](O[C@@H]2O[C@H](C)[C@@H](O[C@H]3C[C@@](C)(O)[C@@H](OC(=O)CC(C)C)[C@H](C)O3)[C@H](N(C)C)[C@H]2O)[C@@H](CC=O)C[C@@H](C)[C@@H](O)/C=C/C=C/C[C@@H](C)OC(=O)C[C@H]1O [KITASAMYCIN]
Not Active: IC50 [1] | IC50 [2] | Ki [2] | IC50 [3] | IC50 [4] | Ki [4] | IC50 [5] | IC50 [6] | IC50 (Calcitonin receptor) | IC50 (B2 bradykinin receptor) | IC50 [7] | IC50 [8] | Ki [8] | IC50 [9] | IC50 [10] | Ki [10] | IC50 [11] | Ki [11] | IC50 [12] | Ki [12] | IC50 [13] | Ki [13] | IC50 [14]

Reference: ChEMBL document CHEMBL1909046, “DrugMatrix in vitro pharmacology data”
